{
  "source": "patent US6843784B2",
  "about": "“Triclosan and silver compound containing medical devices” (priority 1999, dated 2005)",
  "tested_on": "S. aureus",
  "type": "cell-based",
  "note": "Values joined by “and” are separate entries in the source; they are usually repeats but may differ in a detail not shown here. Identical values can stand only once. Like-named read-outs stand apart in the source and are kept apart here.",
  "data": [
    {"smiles": "Oc1cc(Cl)ccc1Oc1ccc(Cl)cc1Cl", "note": "[Triclosan, 2,4,4′-trichloro-2′-hydroxydiphenyl ether]", "values": [
      {"measurement": "Growth in Culture", "value": "2 × 10^7 cfu/ml and 1.2 × 10^7 cfu/ml"},
      {"measurement": "reduction in growth in culture", "setting": "0.5 percent triclosan alone (Table 4 experiment)", "value": 0, "unit": "log"},
      {"measurement": "Growth in Culture", "setting": "Solution: Triclosan 0.25%, Silver Sulfadiazine 0%, after 10 minutes, control 2.1 × 10^7", "value": "1.2 × 10^7 cfu/ml"},
      {"measurement": "Growth in Culture", "setting": "Solution: Triclosan 0.5%, Silver Sulfadiazine 0%, after 10 minutes, control 2.1 × 10^7", "value": "1 × 10^7 cfu/ml"},
      {"measurement": "reduction in growth in culture compared to the control", "setting": "triclosan alone at 0.25 percent (Table 3 experiment)", "value": "less than a power of 10"},
      {"measurement": "reduction in growth in culture compared to the control", "setting": "triclosan alone at 0.5 percent (Table 3 experiment)", "value": "less than a power of 10"}
    ]}
  ]
}
